From patent US10556994B2, “Strictly segmented thermoplastic elastomers as biodegradable biomaterials” (SyMO-Chem B.V., priority 2014, dated 2020)
Where two headings read alike, the source gives them in different places.

How the values were obtained:
[1] = Solubility in PBS of hard block degradation products; assay type: physicochemical; conditions: for solubility: aqueous buffer
Description: The variety of the biodegradation products of the [AB]n materials of this invention is limited, where this is due to the simple and defined molecular structures of the [AB]n materials with only one type of soft block A and only one type of hard block B for a particular [AB]n material. […] Degradation products from the hard block are lower molecular weight molecules such as the molecules shown in Examples 25 and 26 (not: molecules 26E, 26F, 26G).

[2] = tested on: 3T3 mouse fibroblasts; assay: MTT cytotoxicity assay; conditions: cells treated with medium exposed to the material, relative to untreated medium
[3] = tested on: 3T3 mouse fibroblasts

Row | Compound | solubility [1] [µg/mL] | also measured
1 | Triton X-100 |  | cell viability [2]: 0%
2 | poly(hexyl carbonate-random-co-ε-caprolactone) bisurea [Example 32] |  | cell viability [3]: 60-116%
3 | NCCCCCNC(=O)CCCCCN [Example 25C, 6-amino-N-(5-aminopentyl)hexanamide] | > 5000 | 
4 | O=C(O)CCCCCNC(=O)NCCCCNC(=O)NCCCCCC(=O)O [Example 26B] |  | solubility in PBS [1]: > 1000 µg/mL

Further lines, with some results ahead:

Row | solubility [1] [µg/mL] | Compound | also measured
5 | > 5000 | NCCCCNC(=O)CCCCC(=O)NCCCCN [Example 25D, N^1,N^6-bis(4-aminobutyl)adipamide] | 
6 | > 5000 | NCCCCCCNC(=O)NCCCCCCN [Example 25E, 1,3-bis-(6-aminohexyl)urea] | 
